Type in all cases: biochemical
For assay [1], the target named is Trk A (Homo sapiens, UniProt P04629). Briefly: HotSpot kinase assay against Trk A. Particulars: HotSpot 33P assay, ATP 10 μM-30 μM. How it is done: (§1) Kinase assays were performed using test compounds against a panel of Trk kinases: Trk A; Trk B; and Trk C. Each compound was tested at a concentration of 0.1 μM in single duplicate mode against the three kinases. Compounds were prepared as 10 mM stock solutions in DMSO prior to use in the assay. The control compound, staurosporine, was tested at 10 concentrations with three-fold serial dilution starting at 20 μM. IC50 values and curve fits were obtained using Prism (GraphPad Software). IC50 values were determined for staurosporine for comparison.
(§2) The screening was performed using the “HotSpot” assay platform. The assay measures the conversion of a peptide substrate to ^33P-labelled phosphorylated product. Briefly, specific kinase/substrate pairs along with required cofactors were prepared in reaction buffer. Specifically, the substrate was prepared in reaction buffer (20 mM Hepes, pH 7.5; 10 mM MgCl2; 1 mM EGTA; 0.02% Brij35; 0.02 mg/mL BSA; 0.1 mM Na3VO4; 2 mM DTT; 1% DMSO), followed by delivery of any required cofactor to the resulting substrate solution. The corresponding kinase was delivered into the substrate solution and the reaction mixture was mixed gently. Compound was delivered into the reaction mixture, followed 15-20 min later by addition of a mixture of ATP (Sigma, St. Louis Mo.) and ^33P ATP (specific activity 0.01 μCi/μL final; Perkin Elmer, Waltham, Mass.) to a final concentration of 10 μM-30 μM to initiate the reaction. Reactions were carried out at RT for 120 min, followed by spotting of the reactions onto P81 ion exchange filter paper (Whatman #3698-915; Whatman Inc., Piscataway, N.J.). Unbound phosphate was removed by extensive washing of filters in 0.75% phosphoric acid. […] The percent of enzyme inhibition was calculated based on the percent of remaining kinase activity.

Assay [2] has as its target Trk B (Homo sapiens, UniProt Q16620). Briefly: HotSpot kinase assay against Trk B. Particulars: HotSpot 33P assay, ATP 10 μM-30 μM. On the procedure: as §1, §2
Assay [3] concerns the target Trk C (Homo sapiens, UniProt Q16288). Put plainly: HotSpot kinase assay against Trk C. Particulars: HotSpot 33P assay, ATP 10 μM-30 μM. How it is done: as §1, §2
In assay [4] the target is T1, activated IGF-1R (Homo sapiens, UniProt P08069).
T1 construct: purchased Millipore 14-802
Briefly: In vitro IGF-1R enzymatic assay (ADP-Glo). Particulars: ATP 100 μM; for inhibition at 1 µM: compound 1 μM; for inhibition at 3 µM: compound 3 μM; for inhibition at 10 µM: compound 10 μM; for inhibition at 30 µM: compound 30 μM. How it is done:
(§3) Inhibition of IGF-1R and IR kinases by compounds described herein were tested. The IC50 values were measured in vitro using an ADP-Glo kinase assay Kit (Promega). For the IGF-1R assay, active recombinant IGF-1R (Millipore #14-802) was used at 1 ng/reaction, the substrate IGF-1R tide (Millipore #12-527) was used at 125 μM and ATP was used at 100 μM. For the IR assay, active recombinant IR (Millipore #14-803) was used at 1 ng/reaction, the substrate Axl tide (Millipore #12-516) was used at 125 μM and ATP at 50 μM. Kinase reactions in both assays were conducted at 30° C. for 20 min with increasing concentrations of the test compounds.
(§4) The assay results as the percent inhibition of binding are presented in Tables B2 and B3 for IGF-1R and IR respectively.

Assay [5] deals with T2, activated IR (Homo sapiens, UniProt P06213).
T2 construct: purchased Millipore 14-803
Briefly: In vitro IR enzymatic assay (ADP-Glo). Particulars: ATP 50 μM; for inhibition at 1 µM: compound 1 μM; for inhibition at 3 µM: compound 3 μM; for inhibition at 30 µM: compound 30 μM. On the procedure:
as §3, §4

The text below walks through data of patent publication US20170137410A1, “FUSED CYCLOALKYL-PYRIMIDINE COMPOUNDS AND USES THEREOF” (Medivation Technologies, Inc., priority 2014, published 2017).

Each structure is given as a SMILES string.

T1 sequence (P08069 31-1367): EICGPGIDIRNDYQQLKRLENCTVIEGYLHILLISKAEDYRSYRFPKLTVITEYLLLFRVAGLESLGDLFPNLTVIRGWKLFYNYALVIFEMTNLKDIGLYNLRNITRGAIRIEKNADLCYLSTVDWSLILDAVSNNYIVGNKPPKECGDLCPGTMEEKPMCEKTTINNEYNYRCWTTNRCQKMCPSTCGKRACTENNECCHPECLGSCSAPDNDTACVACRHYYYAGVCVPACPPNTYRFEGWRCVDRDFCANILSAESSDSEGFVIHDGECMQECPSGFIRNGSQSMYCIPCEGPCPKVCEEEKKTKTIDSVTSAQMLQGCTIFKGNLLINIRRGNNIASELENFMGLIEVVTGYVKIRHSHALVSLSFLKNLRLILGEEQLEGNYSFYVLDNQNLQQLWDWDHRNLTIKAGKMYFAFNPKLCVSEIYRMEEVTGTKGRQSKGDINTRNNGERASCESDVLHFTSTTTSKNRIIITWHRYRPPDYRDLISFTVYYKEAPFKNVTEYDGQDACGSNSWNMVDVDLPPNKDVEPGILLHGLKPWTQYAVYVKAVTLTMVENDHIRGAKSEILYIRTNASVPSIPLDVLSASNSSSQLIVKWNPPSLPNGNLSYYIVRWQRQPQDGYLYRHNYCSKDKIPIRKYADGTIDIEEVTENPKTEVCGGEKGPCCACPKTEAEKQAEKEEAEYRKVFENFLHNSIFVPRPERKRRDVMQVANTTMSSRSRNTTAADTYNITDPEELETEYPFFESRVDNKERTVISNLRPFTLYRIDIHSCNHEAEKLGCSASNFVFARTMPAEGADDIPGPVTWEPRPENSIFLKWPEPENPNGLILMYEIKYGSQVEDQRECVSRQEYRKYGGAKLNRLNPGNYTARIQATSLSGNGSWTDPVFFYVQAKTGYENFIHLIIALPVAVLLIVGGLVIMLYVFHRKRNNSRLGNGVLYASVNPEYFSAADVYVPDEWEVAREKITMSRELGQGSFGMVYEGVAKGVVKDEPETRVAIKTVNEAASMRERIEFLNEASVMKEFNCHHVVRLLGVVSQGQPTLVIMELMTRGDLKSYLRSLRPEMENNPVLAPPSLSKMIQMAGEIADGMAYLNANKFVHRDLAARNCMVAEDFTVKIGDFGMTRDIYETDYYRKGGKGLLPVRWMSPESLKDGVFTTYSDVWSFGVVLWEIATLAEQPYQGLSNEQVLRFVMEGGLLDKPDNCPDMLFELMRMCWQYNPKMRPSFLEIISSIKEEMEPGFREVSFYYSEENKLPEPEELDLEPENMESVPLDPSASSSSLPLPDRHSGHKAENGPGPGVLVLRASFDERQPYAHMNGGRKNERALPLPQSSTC
Chain of Trk B (Q16620 32-822): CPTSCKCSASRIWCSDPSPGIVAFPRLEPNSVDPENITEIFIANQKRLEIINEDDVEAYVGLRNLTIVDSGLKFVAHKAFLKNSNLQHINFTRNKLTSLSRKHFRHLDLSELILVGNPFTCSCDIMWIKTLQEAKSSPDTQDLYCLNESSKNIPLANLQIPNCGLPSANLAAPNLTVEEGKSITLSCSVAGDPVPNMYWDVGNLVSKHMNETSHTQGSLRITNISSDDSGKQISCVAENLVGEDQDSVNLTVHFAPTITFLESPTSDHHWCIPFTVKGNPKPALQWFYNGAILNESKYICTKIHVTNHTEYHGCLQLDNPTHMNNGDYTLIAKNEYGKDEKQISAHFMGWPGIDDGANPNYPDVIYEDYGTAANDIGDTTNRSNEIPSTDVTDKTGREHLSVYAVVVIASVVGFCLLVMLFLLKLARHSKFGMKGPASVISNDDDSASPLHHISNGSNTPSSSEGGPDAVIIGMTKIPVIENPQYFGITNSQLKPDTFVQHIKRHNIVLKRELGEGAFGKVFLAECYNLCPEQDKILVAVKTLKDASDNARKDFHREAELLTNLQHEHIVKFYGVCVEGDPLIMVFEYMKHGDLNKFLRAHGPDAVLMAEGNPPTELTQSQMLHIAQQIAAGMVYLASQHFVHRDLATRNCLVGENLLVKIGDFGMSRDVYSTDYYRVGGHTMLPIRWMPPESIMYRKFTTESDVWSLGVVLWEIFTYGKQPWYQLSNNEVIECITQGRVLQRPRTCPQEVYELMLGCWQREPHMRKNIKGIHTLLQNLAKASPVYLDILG
T2 sequence (P06213 28-1382): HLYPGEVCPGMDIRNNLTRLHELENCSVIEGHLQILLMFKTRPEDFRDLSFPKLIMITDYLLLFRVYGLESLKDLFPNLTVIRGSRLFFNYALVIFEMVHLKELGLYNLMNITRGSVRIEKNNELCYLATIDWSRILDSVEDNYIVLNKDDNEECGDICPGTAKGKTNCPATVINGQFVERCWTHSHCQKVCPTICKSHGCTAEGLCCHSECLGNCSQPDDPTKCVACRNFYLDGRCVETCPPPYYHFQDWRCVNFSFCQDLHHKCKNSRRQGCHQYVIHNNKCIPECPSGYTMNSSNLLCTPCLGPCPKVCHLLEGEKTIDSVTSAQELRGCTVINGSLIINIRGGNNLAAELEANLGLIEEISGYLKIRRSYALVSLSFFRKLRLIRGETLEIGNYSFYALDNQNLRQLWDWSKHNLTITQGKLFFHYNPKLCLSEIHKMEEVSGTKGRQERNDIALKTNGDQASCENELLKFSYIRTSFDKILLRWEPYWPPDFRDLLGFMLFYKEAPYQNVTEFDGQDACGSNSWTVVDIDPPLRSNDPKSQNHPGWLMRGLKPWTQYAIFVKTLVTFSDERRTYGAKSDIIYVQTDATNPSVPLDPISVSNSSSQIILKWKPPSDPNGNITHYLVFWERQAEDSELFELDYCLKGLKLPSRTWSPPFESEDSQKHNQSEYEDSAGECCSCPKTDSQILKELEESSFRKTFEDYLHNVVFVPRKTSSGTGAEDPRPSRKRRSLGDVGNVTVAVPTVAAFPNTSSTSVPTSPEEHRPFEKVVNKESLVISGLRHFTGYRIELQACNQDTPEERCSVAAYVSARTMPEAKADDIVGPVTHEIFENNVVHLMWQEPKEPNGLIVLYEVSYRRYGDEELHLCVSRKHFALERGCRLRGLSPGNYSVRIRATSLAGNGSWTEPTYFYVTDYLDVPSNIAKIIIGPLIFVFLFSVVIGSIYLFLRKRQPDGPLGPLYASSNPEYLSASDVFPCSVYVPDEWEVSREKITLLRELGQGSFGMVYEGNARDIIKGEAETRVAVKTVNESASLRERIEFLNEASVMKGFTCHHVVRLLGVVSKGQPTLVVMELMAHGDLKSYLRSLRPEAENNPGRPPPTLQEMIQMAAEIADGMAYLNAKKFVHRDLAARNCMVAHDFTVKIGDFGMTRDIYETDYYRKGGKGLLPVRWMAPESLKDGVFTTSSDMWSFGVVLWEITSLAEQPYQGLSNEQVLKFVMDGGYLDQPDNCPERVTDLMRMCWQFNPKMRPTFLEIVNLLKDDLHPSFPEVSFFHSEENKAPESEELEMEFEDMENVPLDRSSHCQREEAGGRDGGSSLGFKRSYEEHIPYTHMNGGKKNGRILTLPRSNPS
Chain of Trk A (P04629 33-796): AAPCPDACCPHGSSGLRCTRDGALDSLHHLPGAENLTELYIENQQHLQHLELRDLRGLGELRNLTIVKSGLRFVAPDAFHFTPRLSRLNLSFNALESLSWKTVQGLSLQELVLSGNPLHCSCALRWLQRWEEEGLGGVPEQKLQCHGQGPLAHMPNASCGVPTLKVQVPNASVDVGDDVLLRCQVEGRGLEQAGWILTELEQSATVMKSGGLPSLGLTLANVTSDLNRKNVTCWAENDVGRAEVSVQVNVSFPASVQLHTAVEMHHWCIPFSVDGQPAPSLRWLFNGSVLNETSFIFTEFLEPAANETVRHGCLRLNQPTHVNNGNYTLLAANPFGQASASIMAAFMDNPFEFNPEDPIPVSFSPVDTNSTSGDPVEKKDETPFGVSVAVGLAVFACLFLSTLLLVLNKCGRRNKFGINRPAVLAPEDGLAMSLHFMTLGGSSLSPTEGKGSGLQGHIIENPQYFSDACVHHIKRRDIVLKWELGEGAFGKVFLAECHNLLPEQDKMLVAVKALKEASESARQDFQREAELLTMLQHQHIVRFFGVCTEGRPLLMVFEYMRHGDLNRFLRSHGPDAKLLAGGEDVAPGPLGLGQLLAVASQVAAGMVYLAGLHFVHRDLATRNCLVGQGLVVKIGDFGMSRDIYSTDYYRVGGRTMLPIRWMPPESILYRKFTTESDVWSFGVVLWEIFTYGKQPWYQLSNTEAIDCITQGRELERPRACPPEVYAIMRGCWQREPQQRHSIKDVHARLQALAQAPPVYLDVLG
Chain of Trk C (Q16288 32-839): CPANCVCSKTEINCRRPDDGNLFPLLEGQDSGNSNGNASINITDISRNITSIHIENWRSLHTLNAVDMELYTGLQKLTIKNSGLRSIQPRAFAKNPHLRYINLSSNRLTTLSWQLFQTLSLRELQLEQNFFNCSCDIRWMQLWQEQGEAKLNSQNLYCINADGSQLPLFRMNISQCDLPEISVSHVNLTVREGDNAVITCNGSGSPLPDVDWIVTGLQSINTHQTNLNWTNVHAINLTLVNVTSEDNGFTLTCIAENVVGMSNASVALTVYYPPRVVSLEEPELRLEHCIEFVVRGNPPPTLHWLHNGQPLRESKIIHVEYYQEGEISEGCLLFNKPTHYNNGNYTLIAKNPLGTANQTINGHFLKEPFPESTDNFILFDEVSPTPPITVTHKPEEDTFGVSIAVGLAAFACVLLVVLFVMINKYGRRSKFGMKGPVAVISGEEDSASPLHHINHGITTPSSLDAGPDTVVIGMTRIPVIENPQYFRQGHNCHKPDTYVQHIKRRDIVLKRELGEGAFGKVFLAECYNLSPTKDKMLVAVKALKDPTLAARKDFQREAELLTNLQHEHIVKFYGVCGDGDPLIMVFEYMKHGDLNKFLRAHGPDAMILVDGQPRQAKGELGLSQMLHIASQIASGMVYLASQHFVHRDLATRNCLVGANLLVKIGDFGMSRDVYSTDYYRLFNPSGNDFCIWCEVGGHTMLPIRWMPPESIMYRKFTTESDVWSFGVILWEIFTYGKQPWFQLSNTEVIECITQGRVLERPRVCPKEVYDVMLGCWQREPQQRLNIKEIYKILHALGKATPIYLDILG

`CC1(C)CCN(C(=O)[C@H]2CCCN2c2nc3c(c(Nc4cc(C5CCCC5)n[nH]4)n2)CCC3)CC1` [141a, (R)-(1-(4-((5-cyclopentyl-1H-pyrazol-3-yl)amino)-6,7-dihydro-5H-cyclopenta[d]pyrimidin-2-yl)pyrrolidin-2-yl)(4,4-dimethylpiperidin-1-yl)methanone] yielded a half-maximal inhibitory concentration (IC50) in assay [1] of 135 nM. In addition, the IC50 in assay [2] came to 231 nM. The IC50 in assay [3] amounted to 146 nM. In addition, in assay [4], the inhibition at 1 µM was found to be 27%, the inhibition at 3 µM was 47%, the inhibition at 10 µM was found to be 74% and the inhibition at 30 µM is 96%. Also, in assay [5], the inhibition at 1 µM worked out at 17%, the inhibition at 3 µM was 47% and the inhibition at 30 µM is 97%.

Compound `CN(C)C(=O)[C@H]1CCCN1c1nc2c(c(Nc3cc(C4CCOCC4)[nH]n3)n1)CCC2` [91a, (R)—N,N-dimethyl-1-(4-((5-(tetrahydro-2H-pyran-4-yl)-1H-pyrazol-3-yl)amino)-6,7-dihydro-5H-cyclopenta[d]pyrimidin-2-yl)pyrrolidine-2-carboxamide] displayed an IC50 in assay [1] of 1440 nM. This compound also showed an IC50 in assay [2] of 403 nM. In assay [3], this compound returned an IC50 of 180 nM. In assay [4], the inhibition at 1 µM stood at 6%, the inhibition at 3 µM is 14%, the inhibition at 10 µM worked out at 14% and the inhibition at 30 µM was 38%. In addition, in assay [5], the inhibition at 1 µM was found to be 5%, the inhibition at 3 µM turned out to be 16% and the inhibition at 30 µM is 45%.

With `CN1CCN(C(=O)[C@@H]2CCCN2c2nc3c(c(Nc4cc(C5CCCC5)n[nH]4)n2)CCC3)CC1=O` [136b, 4-[(2S)-1-[4-[(3-cyclopentyl-1H-pyrazol-5-yl)amino]-6,7-dihydro-5H-cyclopenta[d]pyrimidin-2-yl]pyrrolidine-2-carbonyl]-1-methyl-piperazin-2-one], the IC50 in assay [1] is 1730 nM; in assay [2] it was 106 nM; in assay [3], 42.4 nM. The inhibition at 1 µM in assay [4] is 15%; in assay [5], -2%. Further, the inhibition at 3 µM in assay [4] came out at 12%; in assay [5] it was 21%. For the same compound, the inhibition at 10 µM in assay [4] was 28%. The inhibition at 30 µM in assay [4] turned out to be 63%; in assay [5], 72%.

For `CN1CCN(C(=O)[C@H]2CCCN2c2nc3c(c(Nc4cc(C5CCCC5)[nH]n4)n2)CCC3)CC1` [134a, (R)-(1-(4-(5-cyclopentyl-1H-pyrazol-3-ylamino)-6,7-dihydro-5H-cyclopenta[d]pyrimidin-2-yl)pyrrolidin-2-yl)(4-methylpiperazin-1-yl)methanone], the IC50 in assay [1] worked out at 32 nM; in assay [2], 90 nM; in assay [3], 44.4 nM. For the same compound, the figures for the inhibition at 1 µM in assay [4] and in assay [5] were 73% and 80%, respectively.

Compound `CN(C(=O)[C@@H]1CCCN1c1nc2c(c(Nc3cc(C4CCCC4)n[nH]3)n1)CCC2)c1nccs1` [70b, (2S)-1-[4-[(3-cyclopentyl-1H-pyrazol-5-yl)amino]-6,7-dihydro-5H-cyclopenta[d]pyrimidin-2-yl]-N-methyl-N-thiazol-2-yl-pyrrolidine-2-carboxamide] came in with an IC50 in assay [1] of 26 nM. In assay [2], this compound gave an IC50 of 2 nM. Also, the IC50 in assay [3] came out at 1.2 nM. In assay [4], the inhibition at 1 µM is 35%, the inhibition at 3 µM amounted to 57%, the inhibition at 10 µM is 83% and the inhibition at 30 µM was 95%. Further, in assay [5], the inhibition at 1 µM worked out at 30%, the inhibition at 3 µM stood at 60% and the inhibition at 30 µM came out at 97%.

As to `O=C([C@@H]1CCCN1c1nc2c(c(Nc3cc(C4CCCC4)[nH]n3)n1)CCC2)N1CCC(F)(F)C1` [109b, (S)-(1-(4-((5-cyclopentyl-1H-pyrazol-3-yl)amino)-6,7-dihydro-5H-cyclopenta[d]pyrimidin-2-yl)pyrrolidin-2-yl)(3,3-difluoropyrrolidin-1-yl)methanone], the IC50 is 11 nM in assay [1], 1 nM in assay [2] and 0.3 nM in assay [3]. Further, the inhibition at 1 µM in assay [4] and in assay [5] was 12% throughout. Further, the inhibition at 3 µM in assay [4] was 33%; in assay [5] it was 39%. Moreover, the inhibition at 10 µM in assay [4] came out at 61%. The inhibition at 30 µM in assay [4] amounted to 84%; in assay [5] it was 86%.

Regarding `O=C([C@@H]1CCCN1c1nc2c(c(Nc3cc(C4CCCC4)[nH]n3)n1)CCC2)N1CC(F)(F)C(F)(F)C1` [110b, (S)-(1-(4-(5-cyclopentyl-1H-pyrazol-3-ylamino)-6,7-dihydro-5H-cyclopenta[d]pyrimidin-2-yl)pyrrolidin-2-yl)(3,3,4,4-tetrafluoropyrrolidin-1-yl)methanone], in assay [1], 41 nM corresponded to half-maximal inhibition (IC50). The same compound came in with an IC50 in assay [2] of 2 nM. For the same compound, inhibition in assay [3] was half-maximal at 0.8 nM (IC50). Also, in assay [4], the inhibition at 1 µM turned out to be 1%, the inhibition at 3 µM was found to be 18%, the inhibition at 10 µM was 34% and the inhibition at 30 µM was determined as 68%. Moreover, in assay [5], the inhibition at 1 µM turned out to be 3%, the inhibition at 3 µM was 21% and the inhibition at 30 µM was 74%.

As to `O=C(Nc1nccs1)[C@@H]1CCCN1c1nc2c(c(Nc3cc(C4CCCC4)[nH]n3)n1)CCC2` [133b, (S)-1-(4-(5-cyclopentyl-1H-pyrazol-3-ylamino)-6,7-dihydro-5H-cyclopenta[d]pyrimidin-2-yl)-N-(thiazol-2-yl)pyrrolidine-2-carboxamide], the IC50 in assay [1] turned out to be 0.515 nM; in assay [2], 0.038 nM; in assay [3], 0.243 nM. The inhibition at 1 µM is 95% in assay [4] and 97% in assay [5].
